Reference: patent US8063048B2, “Acetylenyl-pyrazolo-pyrimidine derivatives” (Hoffmann-La Roche Inc., priority 2005, dated 2011)

Structure (SMILES) | melting point
Nc1ccc(C#Cc2cnc3c(C(F)(F)F)cc(-c4ccc(C(F)(F)F)cc4)cn23)cn1 [Example 191, 5-[8-Trifluoromethyl-6-(4-trifluoromethyl-phenyl)-imidazo[1,2-a]pyridin-3-ylethynyl]-pyridin-2-ylamine] | 260 to 262 °C
NS(=O)(=O)c1ccc(C#Cc2cnc3c(C(F)(F)F)cc(-c4ccc(C(F)(F)F)cc4)cn23)s1 [Example 193, 5-[8-Trifluoromethyl-6-(4-trifluoromethyl-phenyl)-imidazo[1,2-a]pyridin-3-ylethynyl]-thiophene-2-sulfonic acid amide] | 248 to 250 °C
NS(=O)(=O)c1cccc(C#Cc2cnc3c(C(F)(F)F)cc(-c4ccc(C(F)(F)F)cc4)cn23)c1 [Example 194, 3-[8-Trifluoromethyl-6-(4-trifluoromethyl-phenyl)-imidazo[1,2-a]pyridin-3-ylethynyl]-benzenesulfonamide] | 240 °C
CC(O)c1ccc(C#Cc2cnc3c(C(F)(F)F)cc(-c4ccc(C(F)(F)F)cc4)cn23)cc1 (stereo not drawn) [Example 195, 1-{4-[8-Trifluoromethyl-6-(4-trifluoromethyl-phenyl)-imidazo[1,2-a]pyridin-3-ylethynyl]-phenyl}-ethanol] | 157 to 158 °C
CC(C)(CO)NS(=O)(=O)c1cnc(C#Cc2cnc3c(C(F)(F)F)cc(-c4ccc(C(F)(F)F)cc4)cn23)s1 [Example 196, 2-[8-Trifluoromethyl-6-(4-trifluoromethyl-phenyl)-imidazo[1,2-a]pyridin-3-ylethynyl]-thiazole-5-sulfonic acid (2-hydroxy-1,1-dimethyl-ethyl)-amide] | 202 to 203 °C
NC(=O)c1ccc(C#Cc2cnn3c(C(F)(F)F)cc(-c4ccc(C(F)(F)F)cc4)nc23)cc1 [Example 197, 4-[7-Trifluoromethyl-5-(4-trifluoromethyl-phenyl)-pyrazolo[1,5-a]pyrimidin-3-ylethynyl]-benzamide] | 260 °C
CNc1ccc(C#Cc2cnn3c(C(F)(F)F)cc(-c4ccc(C(F)(F)F)cc4)nc23)cn1 [Example 199, Methyl-{5-[7-trifluoromethyl-5-(4-trifluoromethyl-phenyl)-pyrazolo[1,5-a]pyrimidin-3-ylethynyl]-pyridin-2-yl}-amine] | 187 °C
OCCNc1ccc(C#Cc2cnn3c(C(F)(F)F)cc(-c4ccc(C(F)(F)F)cc4)nc23)cn1 [Example 200, 2-{5-[7-Trifluoromethyl-5-(4-trifluoromethyl-phenyl)-pyrazolo[1,5-a]pyrimidin-3-ylethynyl]-pyridin-2-ylamino}-ethanol] | 202 to 203 °C
CCOc1cccc(-c2cc(C(F)F)n3ncc(C#Cc4cccc(S(N)(=O)=O)c4)c3n2)c1 [Example 201, 3-[7-Difluoromethyl-5-(3-ethoxy-phenyl)-pyrazolo[1,5-a]pyrimidin-3-ylethynyl]-benzenesulfonamide] | 167 to 168 °C
CC(C)(O)c1ccc(C#Cc2cnn3c(C(F)(F)F)cc(-c4ccc(C(F)(F)F)cc4)nc23)cc1 [Example 202, 2-{4-[7-Trifluoromethyl-5-(4-trifluoromethyl-phenyl)-pyrazolo[1,5-a]pyrimidin-3-ylethynyl]-phenyl}-propan-2-ol] | 170 to 171 °C
NC(=O)c1ccc(C#Cc2cnc3c(C(F)(F)F)cc(-c4ccc(C(F)(F)F)cc4)cn23)cc1 [Example 203, 4-[8-Trifluoromethyl-6-(4-trifluoromethyl-phenyl)-imidazo[1,2-a]pyridin-3-ylethynyl]-benzamide] | 286 °C
OCc1cccc(C#Cc2cnn3c(C(F)(F)F)cc(-c4ccc(C(F)(F)F)cc4)nc23)c1 [Example 204, {3-[7-Trifluoromethyl-5-(4-trifluoromethyl-phenyl)-pyrazolo[1,5-a]pyrimidin-3-ylethynyl]-phenyl}-methanol] | 177 °C
Nc1ncc(C#Cc2cnn3c(C(F)(F)F)cc(-c4ccc(C(F)(F)F)cc4)nc23)cn1 [Example 205, 5-[7-Trifluoromethyl-5-(4-trifluoromethyl-phenyl)-pyrazolo[1,5-a]pyrimidin-3-ylethynyl]-pyrimidin-2-ylamine] | 255 to 256 °C
NC(=O)c1ccc(C#Cc2cnn3c(C(F)F)cc(-c4ccc(C(F)(F)F)cc4)nc23)cn1 [Example 206, 5-[7-Difluoromethyl-5-(4-trifluoromethyl-phenyl)-pyrazolo[1,5-a]pyrimidin-3-ylethynyl]-pyridine-2-carboxylic acid amide] | 276 to 277 °C
CC(=O)Nc1ccc(C#Cc2cnn3c(C(F)(F)F)cc(-c4ccc(C(F)(F)F)cc4)nc23)cc1 [Example 207, N-{4-[7-Trifluoromethyl-5-(4-trifluoromethyl-phenyl)-pyrazolo[1,5-a]pyrimidin-3-ylethynyl]-phenyl}-acetamide] | 238 °C
CCOc1cccc(-c2cc(C(F)F)n3ncc(C#Cc4ccc(N)nc4)c3n2)c1 [Example 208, 5-[7-Difluoromethyl-5-(3-ethoxy-phenyl)-pyrazolo[1,5-a]pyrimidin-3-ylethynyl]-pyridin-2-ylamine] | 162 °C
Cc1cc(-c2ccc(C(F)(F)F)cc2)cn2c(C#Cc3ccc(N)nc3)cnc12 [Example 209, 5-[8-Methyl-6-(4-trifluoromethyl-phenyl)-imidazo[1,2-a]pyridin-3-ylethynyl]-pyridin-2-ylamine] | 239 to 240 °C

Structure (SMILES) | melting point
Cc1cc(-c2ccc(Cl)cc2)cn2c(C#Cc3ccc(N)nc3)cnc12 [Example 210, 5-[6-(4-Chloro-phenyl)-8-methyl-imidazo[1,2-a]pyridin-3-ylethynyl]-pyridin-2-ylamine] | 231 to 234 °C
Cc1cc(-c2ccc(Cl)cc2)cn2c(C#Cc3ccc(S(N)(=O)=O)s3)cnc12 [Example 211, 5-[6-(4-Chloro-phenyl)-8-methyl-imidazo[1,2-a]pyridin-3-ylethynyl]-thiophene-2-sulfonic acid amide] | 265 to 266 °C
Cc1cc(-c2ccc(C(F)(F)F)cc2)cn2c(C#Cc3ccc(S(N)(=O)=O)s3)cnc12 [Example 212, 5-[8-Methyl-6-(4-trifluoromethyl-phenyl)-imidazo[1,2-a]pyridin-3-ylethynyl]-thiophene-2-sulfonic acid amide] | 270 °C
Nc1ncc(C#Cc2cnn3c(C(F)F)cc(-c4ccc(C(F)(F)F)cc4)nc23)cn1 [Example 213, 5-[7-Difluoromethyl-5-(4-trifluoromethyl-phenyl)-pyrazolo[1,5-a]pyrimidin-3-ylethynyl]-pyrimidin-2-ylamine] | 242 to 243 °C
N#Cc1cc(-c2ccc(C(F)(F)F)cc2)cn2c(C#Cc3ccc(S(N)(=O)=O)s3)cnc12 [Example 214, 5-[8-Cyano-6-(4-trifluoromethyl-phenyl)-imidazo[1,2-a]pyridin-3-ylethynyl]-thiophene-2-sulfonic acid amide] | 267 to 269 °C
CS(=O)(=O)Nc1ccc(C#Cc2cnn3c(C(F)(F)F)cc(-c4ccc(C(F)(F)F)cc4)nc23)cn1 [Example 216, N-{5-[7-Trifluoromethyl-5-(4-trifluoromethyl-phenyl)-pyrazolo[1,5-a]pyrimidin-3-ylethynyl]-pyridin-2-yl}-methanesulfonamide] | 261 to 263 °C
NS(=O)(=O)c1ccc(C#Cc2cnc3ccc(-c4ccc(C(F)(F)F)cc4)cn23)s1 [Example 217, 5-[6-(4-Trifluoromethyl-phenyl)-imidazo[1,2-a]pyridin-3-ylethynyl]-thiophene-2-sulfonic acid amide] | 206 to 210 °C
N#Cc1cc(C#Cc2cnn3c(C(F)F)cc(-c4ccc(C(F)(F)F)cc4)nc23)cnc1N [Example 218, 2-Amino-5-[7-difluoromethyl-5-(4-trifluoromethyl-phenyl)-pyrazolo[1,5-a]pyrimidin-3-ylethynyl]-nicotinonitrile] | 255 °C
N#Cc1cc(C#Cc2cnn3c(C(F)(F)F)cc(-c4ccc(C(F)(F)F)cc4)nc23)cnc1N [Example 219, 2-Amino-5-[7-trifluoromethyl-5-(4-trifluoromethyl-phenyl)-pyrazolo[1,5-a]pyrimidin-3-ylethynyl]-nicotinonitrile] | 264 °C
Cc1cc(-c2ccc(C(F)(F)F)cc2)cn2c(C#Cc3cnc(N)nc3)cnc12 [Example 220, 5-[8-Methyl-6-(4-trifluoromethyl-phenyl)-imidazo[1,2-a]pyridin-3-ylethynyl]-pyrimidin-2-ylamine] | 236 °C
Cc1cc(-c2ccc(Cl)cc2)cn2c(C#Cc3cnc(N)nc3)cnc12 [Example 221, 5-[6-(4-Chloro-phenyl)-8-methyl-imidazo[1,2-a]pyridin-3-ylethynyl]-pyrimidin-2-ylamine] | 263 °C
Nc1ncc(C#Cc2cnn3c(C(F)(F)F)cc(-c4ccc(C(F)(F)F)cc4)nc23)cc1C(F)(F)F [Example 222, 3-Trifluoromethyl-5-[7-trifluoromethyl-5-(4-trifluoromethyl-phenyl)-pyrazolo[1,5-a]pyrimidin-3-ylethynyl]-pyridin-2-ylamine] | 230 °C
Nc1ncc(C#Cc2cnn3c(C(F)(F)F)cc(-c4ccc(Cl)cc4)nc23)cc1C(F)(F)F [Example 223, 5-[5-(4-Chloro-phenyl)-7-trifluoromethyl-pyrazolo[1,5-a]pyrimidin-3-ylethynyl]-3-trifluoromethyl-pyridin-2-ylamine] | 209 °C
NS(=O)(=O)c1ccc(C#Cc2cnc3c(C4CC4)cc(-c4ccc(C(F)(F)F)cc4)cn23)s1 [Example 224, 5-[8-Cyclopropyl-6-(4-trifluoromethyl-phenyl)-imidazo[1,2-a]pyridin-3-ylethynyl]-thiophene-2-sulfonic acid amide] | 261 °C
CC(=O)Nc1ccc(C#Cc2cnn3c(C(F)(F)F)cc(-c4ccc(C(F)(F)F)cc4)nc23)cn1 [Example 225, N-{5-[7-Trifluoromethyl-5-(4-trifluoromethyl-phenyl)-pyrazolo[1,5-a]pyrimidin-3-ylethynyl]-pyridin-2-yl}-acetamide] | 266 °C
N#Cc1cc(-c2ccc(C(F)(F)F)cc2)cn2c(C#Cc3cnc(N)nc3)cnc12 [Example 227, 3-(2-Amino-pyrimidin-5-ylethynyl)-6-(4-trifluoromethyl-phenyl)-imidazo[1,2-a]pyridine-8-carbonitrile] | 290 °C
